According to patent publication US7189729B2, “Methods and compositions as protein kinase inhibitors” (IRM LLC, priority 2003, dated 2007):
pIC50: −log10 of the molar value.

Target: b-Raf (Homo sapiens, UniProt P15056)
Experiment: b-Raf inhibition assay (IκBα substrate, 384-well plate)
Format: biochemical
Procedure: Compounds of the invention are tested for their ability to inhibit the activity of b-Raf. The assay is carried out in 384-well MaxiSorp plates (NUNC) with black walls and clear bottom. The substrate, IκBα is diluted in DPBS (1:750) and 15 μl is added to each well. The plates are incubated at 4° C. overnight and washed 3 times with TBST (25 mM Tris, pH 8.0, 150 mM NaCl and 0.05% Tween-20) using the EMBLA plate washer. Plates are blocked by Superblock (15 μl/well) for 3 hours at room temperature, washed 3 times with TBST and pat-dried. Assay buffer containing 20 μM ATP (10 μl) is added to each well followed by 100 nl or 500 nl of compound. B-Raf is diluted in the assay buffer (1 μl into 25 μl) and 10 μl of diluted b-Raf is added to each well ([…]). The plates are incubated at room temperature for 2.5 hours. The kinase reaction is stopped by washing the plates 6 times with TBST. Phosph-IκBα (Ser32/36) antibody is diluted in Superblock (1:10,000) and 15 μl is added to each well. The plates are incubated at 4° C. overnight and washed 6 times with TBST. AP-conjugated goat-anti-mouse IgG is diluted in Superblock (1:1,500) and 15 μl is added to each well. Plates are incubated at room temperature for 1 hour and washed 6 times with TBST. […] Plates are read on Acquest or Analyst GT using a Fluorescence Intensity Nanxin BBT anion (505 dichroic mirror).

Sequence of b-Raf (P15056 whole entry): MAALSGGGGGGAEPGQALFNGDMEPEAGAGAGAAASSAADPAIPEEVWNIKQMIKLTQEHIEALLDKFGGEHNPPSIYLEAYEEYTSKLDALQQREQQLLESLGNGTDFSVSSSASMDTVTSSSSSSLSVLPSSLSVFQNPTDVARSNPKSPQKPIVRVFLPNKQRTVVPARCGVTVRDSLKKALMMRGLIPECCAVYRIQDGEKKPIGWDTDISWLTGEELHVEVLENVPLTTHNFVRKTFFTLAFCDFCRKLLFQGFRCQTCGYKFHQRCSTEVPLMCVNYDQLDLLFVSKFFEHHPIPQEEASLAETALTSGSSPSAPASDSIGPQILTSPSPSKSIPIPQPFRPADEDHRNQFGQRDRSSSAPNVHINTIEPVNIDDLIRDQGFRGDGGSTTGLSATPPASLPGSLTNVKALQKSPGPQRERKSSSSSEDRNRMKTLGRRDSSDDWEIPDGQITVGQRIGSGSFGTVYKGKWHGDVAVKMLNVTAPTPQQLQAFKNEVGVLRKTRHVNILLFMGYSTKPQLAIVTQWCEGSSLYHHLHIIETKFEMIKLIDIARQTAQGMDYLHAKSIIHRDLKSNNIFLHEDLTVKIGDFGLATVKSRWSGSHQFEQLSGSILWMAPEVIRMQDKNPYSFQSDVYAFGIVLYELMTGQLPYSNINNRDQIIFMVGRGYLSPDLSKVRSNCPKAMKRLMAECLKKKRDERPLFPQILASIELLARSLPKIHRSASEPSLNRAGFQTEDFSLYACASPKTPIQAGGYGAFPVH

pIC50: 6.18
Structure (SMILES): CN1CCN(Cc2ccc(C(=O)Nc3cccc(Nc4ccccc4-c4cc(Nc5cccc(N(C)C)c5)ncn4)c3)cc2)CC1 [Example 1, N-(3-{2-[6-(3-Dimethylamino-phenylamino)-pyrimidin-4-yl]-phenylamino}-phenyl)-4-(4-methyl-piperazin-1-ylmethyl)-benzamide]
